Patent US7834173B2, “Esters of hyaluronic acid with rhein, process for their preparation and compositions comprising the same” (Laboratoire Medidom S.A., priority 2004, dated 2010)

Test: Viscosity / syringeability of 1% w/v solutions (VISCOMATE VM-10A)
Format: physicochemical
Conditions: 1% w/v in phosphate-buffered saline solution pH 7.4, 20±0.2° C., no stirring
Protocol: The syringeability of the HA-Re compound of the invention was analysed in comparison to that of hyaluronic acid both with a high and a low molecular weight.
In particular, the following three samples were prepared: • a) a 1% w/v solution of high molecular weight hyaluronic acid (average molecular weight approximately 1'200'000) in phosphate-buffered saline solution, pH 7.4 • b) a 1% w/v solution of low molecular weight hyaluronic acid (average molecular weight approximately 600'000) in phosphate-buffered saline solution, pH 7.4 • c) a 1% w/v solution of the HA-Re compound of the invention in phosphate-buffered saline solution, pH 7.4.
The viscosity of the samples was then measured using a VISCOMATE MODEL VM-10A (glass vial: 3 ml; in the absence of stirring conditions; temperature 20±0.2° C.), with the following values being obtained: • a) η=78.4 mPa·s • b) η=64.8 mPa·s • c) η=47.9 mPa·s

viscosity η: 64.8 mPa·s
Substance: low molecular weight hyaluronic acid
